# According to patent US20020156084A1, “Use of N-benzyl piperazine and analogues as quality of life enhancers” (priority 2001, published 2002):
# Experiment: Administration of N-Benzyl Piperazine (appetite suppressant / anti-depressant effect)
# Assay type: in vivo
# Conditions: administration of the compound; no test details given
# Text: This Patent description is of the use of N-Benzyl Piperazine and Analogues as Quality of Life Enhancers. Administration of N-Benzyl Piperazine has shown to be effective as an appetite suppressant and as a mild anti-depressant. Yeah though it be known that N-Benzyl Piperazine is a CNS stimulant and that stimulants usually are appetite suppressants, it was unknown and unobvious that the binding affinities for the serotonin receptor would be in “perfect” harmony with the norepinephrine receptor to eliminate the side effects of nervousness and the like. It was also unobvious that the increased levels of serotonin and norepinephrine would facilitate individuals in their daily lives to accomplish goals. That is why it is referred to as a Quality of Life Enhancer. Quality of Life Enhancer is defined as a weight loss supplement, appetite suppressant, anti-depressant, cognition enhancer or diet supplement.
# Administration of the compounds is usually in the form of their pharmaceutically acceptable acid addition salts. Doses are within the range if 10 mg to 300 mg per day, but usually are in pills of 75 mg two times a day. Once desired effect is attained 75 mg per day is sufficient.
structure (smiles),measurement,value
"c1ccc(CN2CCNCC2)cc1 [N-Benzyl Piperazine, 1-benzylpiperazine]",effectiveness as a mild anti-depressant,effective
